{"source": "patent US20250277191A1", "about": "“METHODS AND COMPOSITIONS FOR CRYOPRESERVING SUBPOPULATIONS OF LYMPHOCYTES” (Ossium Health, Inc., priority 2022, published 2025)", "key": {"[1]": {"test_system": "Hematopoietic cells and bone marrow", "assay": "CFU assay of bone marrow after thawing cells cryopreserved in DMSO", "type": "cell-based, human", "settings": "for BFU-E / CFU-E / CFU-GEMM / CFU-GM / total CFU: after thawing, average score from duplicate wells", "procedure": "Bone marrow prior to DMSO addition (designated “QC1”) was washed and resuspended at a concentration of 8×10^6 cells/ml in Rinse Media. Cells were aliquoted and mixed with equal volumes of DMSO solutions to yield final concentrations of either 2.5, 5 or 10% DMSO in Rinse Media. A 2.5 ml volume of each preparation was aliquoted in triplicate to 5 ml cryovials. After equilibrating for 5 minutes, the cryovials were placed in a CryoMed Controlled Rate Freezer and frozen using the following program: • Step 1. −1° C./minute to −86° C. • Step 2. −20° C./minute to −150° C. • Step 3. Hold at −150° C. The vials were transferred to LN2 after 5 minutes at −150° C. The following day, cryovials containing cryopreserved cells were thawed in a 37° C. water bath and transferred to a biological safety cabinet after sanitizing with 70% alcohol. The cells were transferred to a centrifuge tube and pelleted. After removing the supernatant, the cells were resuspended in 12.5 ml of Selection Media. The tubes were centrifuged again and the cell pellet was resuspended in final volume of 25 ml of Selection Media. Total cell counts were obtained using a Sysmex Hematology Analyzer. CFU assays were also performed. Fresh and as well as previously cryopreserved hematopoietic cells and bone marrow preparations were analyzed by CFU assay. Given the limited sample size, statistical analysis could not be performed."}, "[2]": {"test_system": "Hematopoietic cells and bone marrow", "assay": "Flow cytometry of HSPC and lymphocyte subsets in cryopreserved bone marrow", "type": "cell-based, human", "procedure": "Bone marrow prior to DMSO addition (designated “QC1”) was washed and resuspended at a concentration of 8×10^6 cells/ml in Rinse Media. Cells were aliquoted and mixed with equal volumes of DMSO solutions to yield final concentrations of either 2.5, 5 or 10% DMSO in Rinse Media. A 2.5 ml volume of each preparation was aliquoted in triplicate to 5 ml cryovials. After equilibrating for 5 minutes, the cryovials were placed in a CryoMed Controlled Rate Freezer and frozen using the following program: • Step 1. −1° C./minute to −86° C. • Step 2. −20° C./minute to −150° C. • Step 3. Hold at −150° C. The vials were transferred to LN2 after 5 minutes at −150° C. The following day, cryovials containing cryopreserved cells were thawed in a 37° C. water bath and transferred to a biological safety cabinet after sanitizing with 70% alcohol. The cells were transferred to a centrifuge tube and pelleted. After removing the supernatant, the cells were resuspended in 12.5 ml of Selection Media. The tubes were centrifuged again and the cell pellet was resuspended in final volume of 25 ml of Selection Media. Total cell counts were obtained using a Sysmex Hematology Analyzer. Flow cytometry was performed using non-cryopreserved Hematopoietic cells and bone marrow QC1 sample for comparison. Panel design for flow cytometry with the following panel of conjugated antibodies (see Table 1). Each tube was stained with the viability dye 7-AAD after antibody staining. [table]"}}, "note": "“Also recorded” adds a separate entry of the source."}
{"smiles": "C[S+](C)[O-]", "note": "[DMSO, dimethyl sulfoxide]", "values": [{"measurement": "CFU potential", "setting": "[1]; 10% DMSO compared to 2.5 or 5% DMSO, qualitative", "value": "significantly reduces"}, {"measurement": "BFU-E", "setting": "[1]; cryopreserved in 2.5% DMSO", "value": 11.5}, {"measurement": "CFU-E", "setting": "[1]; cryopreserved in 2.5% DMSO", "value": 7.5}, {"measurement": "CFU-GEMM", "setting": "[1]; cryopreserved in 2.5% DMSO", "value": 0.5}, {"measurement": "CFU-GM", "setting": "[1]; cryopreserved in 2.5% DMSO", "value": 7.5}, {"measurement": "total CFU", "setting": "[1]; cryopreserved in 2.5% DMSO", "value": 27}, {"measurement": "BFU-E", "setting": "[1]; cryopreserved in 5% DMSO", "value": 11.5}, {"measurement": "CFU-E", "setting": "[1]; cryopreserved in 5% DMSO", "value": 6}, {"measurement": "CFU-GEMM", "setting": "[1]; cryopreserved in 5% DMSO", "value": 0.5}, {"measurement": "CFU-GM", "setting": "[1]; cryopreserved in 5% DMSO", "value": 9}, {"measurement": "total CFU", "setting": "[1]; cryopreserved in 5% DMSO", "value": 27}, {"measurement": "BFU-E", "setting": "[1]; cryopreserved in 10% DMSO", "value": 4}, {"measurement": "CFU-E", "setting": "[1]; cryopreserved in 10% DMSO", "value": 3.5}, {"measurement": "CFU-GEMM", "setting": "[1]; cryopreserved in 10% DMSO", "value": 0}, {"measurement": "CFU-GM", "setting": "[1]; cryopreserved in 10% DMSO", "value": 0}, {"measurement": "total CFU", "setting": "[1]; cryopreserved in 10% DMSO", "value": 7.5}, {"measurement": "total CD3+ T cells", "setting": "[2]; 2.5% DMSO compared to either 5 or 10%, FIG. 2B", "value": "reduced"}, {"measurement": "Natural Killer cells (CD3-CD19-CD56+)", "setting": "[2]; 2.5 or 5% DMSO compared with 10%, FIG. 2F", "value": "highest"}, {"measurement": "percentage of viable CD45LOCD34+ HSPC in thawed products", "setting": "[2]; 5% DMSO compared with 2.5 and 10% DMSO, FIG. 2A", "value": "highest; also recorded: enhanced"}, {"measurement": "percentage of CD3+CD4-CD8-gd TCR+ gd T cells", "setting": "[2]; 10% DMSO compared to 2.5 and 5%, FIG. 2C", "value": "lowest"}, {"measurement": "gd T cells, sensitivity to DMSO concentration", "setting": "[2]; across 2.5, 5 and 10% DMSO", "value": "relatively insensitive"}, {"measurement": "percentage of CD4+CDRA+CCR7+ naïve T cells", "setting": "[2]; across 2.5, 5 and 10% DMSO, FIG. 2D", "value": "increased with increasing DMSO concentrations; also recorded: lowest with the lower DMSO concentrations"}, {"measurement": "naïve CD8+ T cells", "setting": "[2]; across 2.5, 5 and 10% DMSO, significant between 2.5 and 10%, FIG. 2E", "value": "trend in decreasing; also recorded: relatively insensitive"}, {"measurement": "percentage of HSPC within the total viable cell population", "setting": "[2]; cryopreserved in 5% DMSO versus fresh, FIG. 1A", "value": "increased with cryopreservation"}, {"measurement": "total population of T cells (CD3+)", "setting": "[2]; cryopreserved in 5% DMSO versus fresh, FIG. 1B", "value": "decreased; also recorded: reduced"}, {"measurement": "percentage of gd T cells", "setting": "[2]; cryopreserved in 5% DMSO versus fresh, FIG. 1C", "value": "significant increase; also recorded: increased with cryopreservation"}, {"measurement": "percentage of CD4+/CD8+CDRA+CCL7+ naïve T cells", "setting": "[2]; cryopreserved in 5% DMSO versus fresh, FIG. 1D and 1E", "value": "significantly decreased; also recorded: reduced"}, {"measurement": "percentage of NK cells", "setting": "[2]; cryopreserved in 5% DMSO versus fresh, FIG. 1F", "value": "decreased following cryopreservation"}]}
